# Measured values reported in paper PMC6887663 (Pharmacology Research & Perspectives, 2019).
# What was measured:
# CYP3A4/5 = CYP3A4/5 inhibition in human liver microsomes; format: biochemical; conditions: for IC50 at 10 min / inhibition at 10 min, 666 μmol/L: human, human liver microsomes; for inhibition at 10 min, 666 μmol/L: probe testosterone, Inhibition of formation of 6β‐hydroxytestosterone, Mean, testosterone
# [1] = Preliminary metabolic stability in HLM; format: in vitro ADME, human; conditions: with and without cofactor, 37°C, 0-40 minutes, MMF at 750 μmol/L
# [2] = pH conditions and gut esterases; cited from earlier work
# [3] = system: moderate‐to‐severe psoriasis; conditions: phase III trial (BRIDGE); both P < .001; cited from earlier work
# P‐gp [4] = molecular target: T1, P‐gp (Homo sapiens, UniProt P08183); test: P-gp inhibition, [3H]digoxin efflux in Caco-2 cells; conditions: for % Control relative to 0 mmol/L MMF: Caco‐2 cells, [^3H]digoxin efflux ratio
# P‐gp [5] = molecular target: T1, P‐gp; test: P-gp inhibition, [3H]digoxin efflux in MDCKII-MDR1 and MDCKII-WT cells; conditions: for % Control relative to 0 mmol/L MMF: MDCKII cells, [^3H]digoxin net efflux ratio
# CYP1A2 = molecular target: T2, CYP1A2 (Homo sapiens, UniProt P05177); test: CYP1A2 inhibition in human liver microsomes; format: biochemical
# T2 sequence (P05177 1-516): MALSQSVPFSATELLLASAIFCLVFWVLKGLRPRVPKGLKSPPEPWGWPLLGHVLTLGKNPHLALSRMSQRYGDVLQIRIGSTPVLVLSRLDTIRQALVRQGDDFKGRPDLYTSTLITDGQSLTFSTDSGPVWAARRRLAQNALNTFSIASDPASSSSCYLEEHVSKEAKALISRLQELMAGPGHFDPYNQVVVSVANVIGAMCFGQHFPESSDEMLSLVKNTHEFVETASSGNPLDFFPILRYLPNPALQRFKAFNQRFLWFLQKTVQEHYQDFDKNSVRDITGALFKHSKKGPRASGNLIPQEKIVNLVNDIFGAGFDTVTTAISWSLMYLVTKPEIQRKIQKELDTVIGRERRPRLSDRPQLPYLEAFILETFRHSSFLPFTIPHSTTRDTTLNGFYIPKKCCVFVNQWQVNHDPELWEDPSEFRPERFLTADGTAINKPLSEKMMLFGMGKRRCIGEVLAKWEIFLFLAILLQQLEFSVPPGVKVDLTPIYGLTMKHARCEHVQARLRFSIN
# CYP2B6 = molecular target: T3, CYP2B6 (Homo sapiens, UniProt P20813); test: CYP2B6 inhibition in human liver microsomes; format: biochemical
# T3 sequence (P20813 1-491): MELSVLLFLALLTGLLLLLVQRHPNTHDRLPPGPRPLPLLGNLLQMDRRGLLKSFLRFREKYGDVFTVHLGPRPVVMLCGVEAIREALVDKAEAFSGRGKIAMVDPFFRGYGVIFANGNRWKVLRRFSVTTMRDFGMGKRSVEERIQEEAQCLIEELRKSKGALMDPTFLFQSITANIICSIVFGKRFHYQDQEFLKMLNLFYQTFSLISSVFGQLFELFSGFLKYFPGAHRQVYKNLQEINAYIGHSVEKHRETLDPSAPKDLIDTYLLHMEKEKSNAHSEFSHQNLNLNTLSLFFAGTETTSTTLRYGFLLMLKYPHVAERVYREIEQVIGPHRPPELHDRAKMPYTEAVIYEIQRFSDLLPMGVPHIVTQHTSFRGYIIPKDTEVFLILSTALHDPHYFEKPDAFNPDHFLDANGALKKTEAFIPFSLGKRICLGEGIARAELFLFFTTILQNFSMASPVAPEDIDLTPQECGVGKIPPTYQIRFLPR
# CYP2C8 = molecular target: T4, CYP2C8 (Homo sapiens, UniProt P10632); test: CYP2C8 inhibition in human liver microsomes; format: biochemical
# T4 sequence (P10632 1-490): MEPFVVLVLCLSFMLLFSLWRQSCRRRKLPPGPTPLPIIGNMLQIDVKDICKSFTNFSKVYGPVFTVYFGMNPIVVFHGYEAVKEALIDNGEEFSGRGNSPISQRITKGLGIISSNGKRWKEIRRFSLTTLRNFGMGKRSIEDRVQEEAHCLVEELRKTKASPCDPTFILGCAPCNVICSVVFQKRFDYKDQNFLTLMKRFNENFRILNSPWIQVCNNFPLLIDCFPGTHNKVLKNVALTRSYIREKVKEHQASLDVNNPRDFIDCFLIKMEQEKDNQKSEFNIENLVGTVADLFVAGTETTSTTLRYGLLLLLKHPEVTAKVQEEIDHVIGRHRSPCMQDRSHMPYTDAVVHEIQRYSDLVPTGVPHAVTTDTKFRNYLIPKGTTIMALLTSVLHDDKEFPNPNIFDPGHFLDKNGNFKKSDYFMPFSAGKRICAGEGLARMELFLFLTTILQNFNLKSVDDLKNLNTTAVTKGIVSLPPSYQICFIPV
# CYP2C9 = CYP2C9 (Homo sapiens, UniProt P11712); test: CYP2C9 inhibition in human liver microsomes; format: biochemical
# CYP2C19 = CYP2C19 (Homo sapiens, UniProt P33261); test: CYP2C19 inhibition in human liver microsomes; format: biochemical
# CYP2D6 = CYP2D6 (Homo sapiens, UniProt P10635); test: CYP2D6 inhibition in human liver microsomes; format: biochemical
# [6] = Preliminary solubility in potassium phosphate buffer with HLM; format: physicochemical; conditions: MMF in solutions of HLM at 0.025 and 0.3 mg/mL
# [7] = MMF solubility in supplemented Williams' Medium E; format: physicochemical; conditions: MMF up to 750 μmol/L
# [8] = Cytotoxicity in cultured human hepatocytes; format: cell-based; conditions: human, cryopreserved plated human hepatocytes
# human hepatocytes = test: Cytotoxicity in cultured human hepatocytes; format: cell-based; conditions: MMF ≤250 μmol/L; 72‐hour incubation
# CYP1A2 mRNA = CYP1A2 mRNA induction in cultured human hepatocytes; format: cell-based
# CYP2B6 mRNA = CYP2B6 mRNA induction in cultured human hepatocytes; format: cell-based
# CYP3A4 mRNA = CYP3A4 mRNA induction in cultured human hepatocytes; format: cell-based
# [9] = MMF concentration in incubation medium; format: in vitro ADME; conditions: no‐cell control plate; after 24 hours’ incubation
# [10] = Permeability across Caco-2 cell monolayers; format: in vitro ADME; conditions: human, Caco-2, pH 7.4
# P‐gp [11] = molecular target: T1, P‐gp; test: P-gp substrate assessment in MDCKII-MDR1 and WT MDCKII cells; format: in vitro ADME; conditions: MMF; at 120 minutes; all concentrations investigated
# [12] = read-out: maximum plasma concentration (Cmax) of MMF; for a 240 mg dose; clinically relevant; cited from earlier work
# T1 sequence (P08183 whole entry): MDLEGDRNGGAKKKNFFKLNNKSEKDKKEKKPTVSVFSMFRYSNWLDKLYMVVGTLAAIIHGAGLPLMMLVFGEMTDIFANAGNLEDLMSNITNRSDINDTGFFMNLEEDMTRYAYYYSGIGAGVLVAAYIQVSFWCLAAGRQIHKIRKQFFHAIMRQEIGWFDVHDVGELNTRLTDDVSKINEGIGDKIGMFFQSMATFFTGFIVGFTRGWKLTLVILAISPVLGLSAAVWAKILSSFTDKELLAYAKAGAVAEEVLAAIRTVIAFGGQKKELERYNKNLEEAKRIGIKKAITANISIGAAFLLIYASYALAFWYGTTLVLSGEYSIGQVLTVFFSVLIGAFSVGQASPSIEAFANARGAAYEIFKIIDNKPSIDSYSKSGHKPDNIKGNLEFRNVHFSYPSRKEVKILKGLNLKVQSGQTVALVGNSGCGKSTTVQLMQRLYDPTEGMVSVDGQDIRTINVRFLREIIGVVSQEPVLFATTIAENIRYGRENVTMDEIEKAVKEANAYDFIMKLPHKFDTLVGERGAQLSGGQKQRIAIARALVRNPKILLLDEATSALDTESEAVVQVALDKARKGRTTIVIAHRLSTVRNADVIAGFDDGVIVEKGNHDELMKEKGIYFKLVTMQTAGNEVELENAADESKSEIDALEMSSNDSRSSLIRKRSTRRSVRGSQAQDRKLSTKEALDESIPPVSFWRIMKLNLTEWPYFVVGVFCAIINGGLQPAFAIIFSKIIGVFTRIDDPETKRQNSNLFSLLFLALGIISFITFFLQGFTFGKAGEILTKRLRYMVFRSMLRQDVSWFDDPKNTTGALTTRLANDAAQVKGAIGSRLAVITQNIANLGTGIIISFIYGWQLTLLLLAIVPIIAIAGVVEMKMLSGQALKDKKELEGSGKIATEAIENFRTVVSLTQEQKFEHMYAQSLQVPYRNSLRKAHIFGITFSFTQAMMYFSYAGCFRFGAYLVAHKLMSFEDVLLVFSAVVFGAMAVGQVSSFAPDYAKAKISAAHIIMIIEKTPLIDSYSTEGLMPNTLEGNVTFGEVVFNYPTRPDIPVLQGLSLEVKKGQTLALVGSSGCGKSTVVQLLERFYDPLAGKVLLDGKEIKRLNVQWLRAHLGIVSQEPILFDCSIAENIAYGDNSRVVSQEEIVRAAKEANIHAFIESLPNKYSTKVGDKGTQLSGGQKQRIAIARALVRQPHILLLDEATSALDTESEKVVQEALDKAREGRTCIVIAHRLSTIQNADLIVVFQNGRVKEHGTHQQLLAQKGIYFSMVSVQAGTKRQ
# CYP2D6, sequence (P10635 whole entry): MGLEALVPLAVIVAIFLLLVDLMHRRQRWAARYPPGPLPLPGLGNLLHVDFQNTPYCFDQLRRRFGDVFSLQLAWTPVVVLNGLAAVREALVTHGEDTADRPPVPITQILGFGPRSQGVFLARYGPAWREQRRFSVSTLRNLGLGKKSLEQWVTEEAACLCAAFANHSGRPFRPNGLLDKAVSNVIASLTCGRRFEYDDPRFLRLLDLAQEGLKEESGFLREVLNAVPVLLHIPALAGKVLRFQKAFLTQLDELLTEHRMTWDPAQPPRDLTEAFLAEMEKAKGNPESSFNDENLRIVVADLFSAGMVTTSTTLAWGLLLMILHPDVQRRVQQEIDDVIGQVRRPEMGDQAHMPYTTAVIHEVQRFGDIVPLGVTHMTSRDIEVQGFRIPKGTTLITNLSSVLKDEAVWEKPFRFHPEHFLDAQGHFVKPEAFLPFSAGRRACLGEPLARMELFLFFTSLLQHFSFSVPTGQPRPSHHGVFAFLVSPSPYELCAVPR
# CYP2C19, sequence (P33261 whole entry): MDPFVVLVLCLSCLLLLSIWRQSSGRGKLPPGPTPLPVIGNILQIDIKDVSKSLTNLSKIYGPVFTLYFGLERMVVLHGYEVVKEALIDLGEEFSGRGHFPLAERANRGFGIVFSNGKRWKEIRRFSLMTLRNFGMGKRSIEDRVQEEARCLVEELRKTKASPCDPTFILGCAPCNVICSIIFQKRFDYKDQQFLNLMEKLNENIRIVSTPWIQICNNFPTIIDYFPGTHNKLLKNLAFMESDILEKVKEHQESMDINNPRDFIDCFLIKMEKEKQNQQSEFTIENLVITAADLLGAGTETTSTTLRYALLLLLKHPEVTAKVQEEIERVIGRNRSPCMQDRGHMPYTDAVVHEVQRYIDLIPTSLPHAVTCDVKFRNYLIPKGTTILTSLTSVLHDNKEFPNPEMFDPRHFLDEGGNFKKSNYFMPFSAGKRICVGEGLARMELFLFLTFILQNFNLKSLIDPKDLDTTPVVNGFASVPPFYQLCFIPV
# CYP2C9, sequence (P11712 whole entry): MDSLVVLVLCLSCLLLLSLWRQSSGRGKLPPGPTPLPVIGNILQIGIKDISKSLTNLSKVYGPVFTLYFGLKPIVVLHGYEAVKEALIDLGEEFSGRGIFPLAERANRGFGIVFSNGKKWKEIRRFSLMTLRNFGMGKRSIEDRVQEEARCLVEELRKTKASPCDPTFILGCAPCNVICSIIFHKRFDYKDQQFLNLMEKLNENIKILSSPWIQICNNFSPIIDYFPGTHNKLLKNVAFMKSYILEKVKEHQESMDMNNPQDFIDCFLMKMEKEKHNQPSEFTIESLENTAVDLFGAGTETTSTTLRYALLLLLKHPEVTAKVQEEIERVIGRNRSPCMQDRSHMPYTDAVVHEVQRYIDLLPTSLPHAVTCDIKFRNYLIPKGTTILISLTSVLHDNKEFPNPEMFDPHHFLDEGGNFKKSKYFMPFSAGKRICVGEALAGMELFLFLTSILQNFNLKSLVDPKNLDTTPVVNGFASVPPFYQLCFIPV
structure (smiles),measurement,setting,value
"COC(=O)/C=C/C(=O)OC [DMF, dimethylfumarate]","Inhibition of formation of 1′‐hydroxymidazolam, Mean","CYP3A4/5; DMF 666 μmol/L, 30 min PI + cofactor, midazolam, HLM",8.93%
same,IC50 at 10 min,CYP3A4/5,> 666 µM
same,"inhibition at 10 min, 666 μmol/L","CYP3A4/5; DMF 666 μmol/L, 0 min PI, HLM",0%
same,"inhibition at 10 min, 666 μmol/L","CYP3A4/5; DMF 666 μmol/L, 30 min PI + cofactor, HLM",35.5%
same,"inhibition at 10 min, 666 μmol/L","CYP3A4/5; DMF 666 μmol/L, 30 min PI – cofactor, HLM",0%
same,metabolic stability under the incubation conditions,[1],unlikely to be stable
same,hydrolysis half‐life of DMF in the intestine,[2],less than 2 minutes
same,number of patients with PASI 75 at Week 16,[3],superiority over placebo and noninferiority versus the FAE combination
same,IC50,P‐gp [4],1500 µM
same,IC50,P‐gp [5],900 µM
"COC(=O)/C=C/C(=O)O [MMF, monomethylfumarate]",IC50 at 10 min,CYP3A4/5,> 750 µM
same,IC50,CYP1A2,> 750 µM
same,IC50,CYP2B6,> 750 µM
same,IC50,CYP2C8,> 750 µM
same,IC50,CYP2C9,> 750 µM
same,IC50,CYP2C19,> 750 µM
same,IC50,CYP2D6,> 750 µM
same,mean recovery upon centrifugation,[6],> 92.2%
same,metabolic stability under the incubation conditions,[1],stable
same,Post‐centrifugation recoveries,[7],≥ 86.5%
same,"viability at 72 h, 750 μmol/L",[8],71.6%
same,cytotoxic effects on human hepatocytes,human hepatocytes,No significant cytotoxic effects
same,fold increase in CYP1A2 mRNA,"CYP1A2 mRNA; 250 μmol/L MMF, donor 4",4.78 fold
same,"CYP1A2 mRNA induction, overall","CYP1A2 mRNA; MMF 1‐250 µmol/L, three donors",No concentration‐dependent induction effects
same,fold increase in CYP2B6 mRNA,"CYP2B6 mRNA; 250 μmol/L MMF, donor 4",17.6 fold
same,"CYP2B6 mRNA induction, overall","CYP2B6 mRNA; MMF 1‐250 µmol/L, three donors",No concentration‐dependent induction effects
same,fold increase in CYP3A4 mRNA,"CYP3A4 mRNA; 1 µmol/L MMF, donor 2 (XKU), not concentration dependent",> 2 fold
same,"CYP3A4 mRNA induction, overall",CYP3A4 mRNA; MMF at concentrations up to 250 μmol/L,no concentration‐dependent increases above 2‐fold
same,MMF still present in medium,[9],over 65%
same,Papp A→B at 120 min,[10],< 2 ×10⁻⁶ cm/s
same,net efflux ratio,P‐gp [11],< 2
same,Cmax,[12],11.2 µM
same,decrease of [^3H]digoxin efflux ratio,"P‐gp [4]; 7.38 mmol/L MMF, Caco‐2",approximately 85%
same,fold increase of Papp for [^3H]digoxin in the A–B direction,"P‐gp [4]; 7.38 mmol/L MMF, Caco‐2, possibly cytotoxicity",approximately 9 fold
same,% Control relative to 0 mmol/L MMF,P‐gp [4]; MMF 0.0738 mmol/L,76.9%
same,% Control relative to 0 mmol/L MMF,P‐gp [4]; MMF 0.246 mmol/L,76.7%
same,% Control relative to 0 mmol/L MMF,P‐gp [4]; MMF 0.738 mmol/L,99.8%
same,% Control relative to 0 mmol/L MMF,P‐gp [4]; MMF 7.38 mmol/L,14.5%
same,% Control relative to 0 mmol/L MMF,P‐gp [5]; MMF 0.246 mmol/L,>69.4%
same,% Control relative to 0 mmol/L MMF,P‐gp [5]; MMF 0.738 mmol/L,>88.2%
same,% Control relative to 0 mmol/L MMF,P‐gp [5]; MMF 7.38 mmol/L,>138%
